≈ marks a conversion by molar mass, not a printed value.
What was measured:
[1] = target: quisqualate type receptors (3H-AMPA, rat cerebral cortical membrane homogenate); assay: 3H-AMPA binding (displacement from quisqualate type receptors); conditions: 5 nM 3H-AMPA, 0° C., 30 min, pH 7.1
Experimental: (§1) The pharmacological properties of the compounds of the present invention can be illustrated by determining their capability for displacing radioactively labelled 2-amino-3-hydroxy-5-methyl-4-isoxazolepropionic acid (AMPA) from the quisqualate type receptors.
The displacement activity of the compounds may be shown by determining the IC50 value which represents the concentration (μg/ml) which causes a displacement of 50% of the specific binding of ^3 H-AMPA.
500 μl of thawed rat cerebral cortical membrane homogenate in Tris-HCl (30 mM), CaCl2 (2.5 mM) and KSCN (100 mM) pH 7.1 were incubated at 0° C. for 30 min. with 25 μl ^3 H-AMPA (5 nM final concentration) and the test compound and buffer. Nonspecific binding was determined by incubation with L-glutamic acid (600 μM final concentration). The binding reaction was terminated by adding 5 ml of ice-cold buffer followed by filtration through Whatman GF/C glass fibre filters and 2×5 ml wash with ice-cold buffer. Bound radioactivity was measured by scintillation counting. IC50 was determined by Hill analysis of at least four concentrations of test compound.

[2] = target: quisqualate receptors (quisqualic acid stimulated 3H-GABA efflux, cultured cortical neurones); assay: Antagonism of quisqualic acid stimulated 3H-GABA efflux from cultured cortical neurones; format: cell-based, mouse; conditions: Table 1; test not stated
Experimental: as §1
The antagonism is measured by determining the EC50 value which represents the concentration which reduces the rate of quisqualic acid stimulated ^3 H-GABA efflux by 50%.
Cerebral cortices of 16 day old mouse embryos are chopped in 0.4×0.4 mm cubes. The tissue is dissociated by mild trypsinization (0.1% (wt/vol) trypsin, 37° C., 15 min) and subsequently inoculated into poly-L-lysine-coated 3 cm Petri dishes containing a slightly modified DMEM (24.5 mM KCl, 30 mM glucose) supplemented with p-aminobenzoate (7μM), insulin (100 mU/1) and 10% (vol/vol) horse serum. Cells are maintained in culture for 5-7 days with the addition of the antimitotic agent cytosine arbinoside (40 μM) from day 2 in vitro to prevent glial proliferation. For further details and references see Drejer et al. Exp. Brain Res. 47, 259 (1982)).
Release experiments are performed using the model described by Drejer et al. (Life Sci. 38, 2077 (1986)). Cerebral cortex interneurons cultured in Petri dishes (30 mm) are added 100 μM gamma-vinyl-GABA one hour before the experiment in order to inhibit degradation of GABA in the neurons. 30 min. before the experiment 5 μCi ^3 H-GABA is added to each culture and after this preloading period the cell monolayer at the bottom of the dish is covered with a piece of nylon mesh to protect the cells against mechanical damage and to facilitate dispersion of medium over the cell layer. The preloading medium is removed and the Petri dishes are placed in a superfusion system. This system consists of a peristaltic pump continuously delivering thermostated 37° C. superfusion medium (HEPES buffered saline (HBS): 10 mM HEPES, 135 mM NaCl, 5 mM KCl, […] 1.0 mM CaCl2 and 6 mM D-glucose; pH 7.4) from a reservoir to the top of the slightly tilted Petri dish. The medium is continuously collected from the lower part of the dish and delivered to a fraction collector. Initially, the cells are superfused with HBS for 15 min. (flow rate 2 ml/min.). The cells are stimulated for 30 sec. every 4 min. by changing the superfusion medium from HBS to a corresponding medium containing quisqualate and test compound. The release of ^3 H-GABA in the presence of quisqualate (stimulated release in cpm) are corrected for the mean basal release (Cpm) before and after the stimulation.

Row | IC50 (concentration which causes a displacement of 50% of the specific binding of 3H-AMPA) [1] [mg/L] | EC50 [2] [mg/L] | Compound
1 | 0.61 | 0.12 (≈ 0.526 µM) | O=c1[nH]c2c3ccccc3ccc2n(O)c1=O [Example 1b, 4-Hydroxy-benzo[f]quinoxaline-2,3(1H,4H)-dione]
2 | 0.39 | 0.1 (≈ 0.395 µM) | N#Cc1cc2c([nH]c(=O)c(=O)n2O)c2ccccc12 [Example 2c, 6-Cyano-4-hydroxy-benzo[f]quinoxaline-2,3(1H,4H)-dione]
3 | 0.23 | 0.16 (≈ 0.698 µM) | O=c1[nH]c2c3cccnc3ccc2n(O)c1=O [Example 4b, 4-Hydroxypyrido[3,2-f]quinoxaline-2,3(1H,4H)-dione]
4 | 0.49 | 0.14 (≈ 0.603 µM) | O=c1[nH]c2c3c(ccc2n(O)c1=O)CCCC3 [Example 5b, 7,8,9,10-Tetrahydro-4-hydroxybenzo[f]quinoxaline-2,3(1H,4H)-dione]
